The record followed here is patent US4162325A, “N-substituted lactams” (UCB, Societe Anonyme, priority 1976, dated 1979).

In one series the test system is mice. Briefly: protection against aggressions of the hypoxic type (lethality induced by oxydipentonium chloride) in mice. The series is classed as in vivo. The settings on record: 1 h, mouse, intraperitoneal, one hour before curarizer, read-out: Proportion of survivors, treated animals; for responders at 10 µM, 10 µmol/kg: 0.01 mM/kg (B 2.6, G 2.6, H 2.4 mg/kg), control B 1/10, G 1/10, H 2/10; for responders at 100 µM, 100 µmol/kg: 0.1 mM/kg (F 24, G 25.5, H 24, I 30, J 21, K 23, L 23 mg/kg), control 1/10, F 0/10; for responders at 320 µM, 320 µmol/kg: 0.32 mM/kg (A 64, I 95, J 68, Piracetam 45 mg/kg), control 1/10, Piracetam 0/10. The procedure:
Protection against aggressions of the hypoxic type is shown by a reduction of the lethality induced by a curarizer, the duration of action of which is short, namely oxydipentonium chloride (Brevatonal). At the doses used, this curarizer brings about a respiratory depression which, in turn, brings about a hypoxi-hypercapnic syndrome. A compound capable of protecting the brain during this brief period of hypoxia ensures survival. The compounds are administered to groups of 10 mice one hour before the injection of the curarizer; in a parallel test, a control group of 10 mice are given physiological salt solution before the curarizer. This test has also been developed in our laboratories (see, for the principle of this test, S. LEVIS et al.; Arch. Int. Pharmacodyn. Therap, 93,(1953),1,46-54).
Intraperitoneal administration of compounds of general formula (I), namely, products A, B, F, G, H, I, J, K, L, gives the results shown in Table III: […]

A short description of the next series: toxicity, LD50 in rat. The settings on record: in vivo. An excerpt: The tested compounds have a remarkably low toxicity. Table V gives the toxicities, after intravenous administration, of some of the compounds of the present invention: […]
The test system of series [1] is papillary muscle isolated from the rabbit heart. Kind of series: cardiac activity on isolated papillary muscle of rabbit heart. The settings on record: for activation at 100 µg/mL / activation at 10 µg/mL: Oryctolagus cuniculus, read-out: percentage increase of the tension measured. An excerpt: This has been shown by the method employing the papillary muscle isolated from the rabbit heart, according to the method of H. G. Schoepke and F. E. Shiddeman, J. Pharmacol. Exptl. Therap. 133,(1961), 171.
The reactivity of various compounds of general formula (I) after each experiment is checked against theophylline. Table IV gives some of the results observed, expressed as a percentage increase of the tension measured.

Another series concerns rats. Kind of series: active avoidance test, memory retention (paw pressure withdrawal) in rats. Format: in vivo, rat. The settings on record: for minimal effective dose: sc, read-out: Active dose (minimum dose which reduces the stimulus to below 11 graduations). The text has this: (A) The action on mnemic processes is first shown by the ability of the compounds to improve a type of memory retention in rats. The principle of the active avoidance test (see M. GREINDL and S. PREAT, Arch. Int. Pharmacodyn. Therap. 223,(1976),(1),168-171) developed in our laboratories and used for this purpose may be described as follows: the reaction of withdrawal of a rat's paw when subjected to an increasing and measured pressure is observed. The pressure at which the withdrawal reaction takes place is called the reaction threshold. This threshold is expressed by the number of graduations of the scale of the apparatus used (Analgesy meter UGO BASILE - Milano) and thus corresponds to the minimum pressure which brings about withdrawal when applied to the animal's paw. It is read directly from the scale of the apparatus used.
Inversely, animals treated with a substance having a positive effect on the mnemic processes (for example, piracetam) show a significant degree of retention: the stimulus at which the rats react by a reflex of avoidance is statistically lower than that of the control animals. A minimum of 20 rats are used per test (10 treated rats and 10 control rats) and the active dose is defined as the minimum dose which reduces the stimulus to below 11 graduations.
Subcutaneous administration of compounds of general formula (I), namely compounds A, G, H, I, J, K, L, N, O, P, Q, R, V, W, give, under these conditions, the effects indicated in Table I below.

“And” between values parts separate entries of the source, which are not always exact repeats. Equal entries are not always repeated. Where two headings read alike, the source gives them in different places. A value given as a limit tells only on which side of the number the result lay.

On to `CCCCNC(=O)CNC(=O)CN1CCCC1=O` [Compound B, N-n-Butyl-2-(2-oxo-1-pyrrolidineacetamido)-acetamide], for which the responders at 10 µM, 10 µmol/kg with mice stood at 60%. In addition, the responders at 32 µM, 8.2 mg/kg in the series with mice (ip, 0.032 mM/kg (B 8.2 mg/kg), control 1/10) stood at 80%. Moreover, the LD50 in the series “toxicity, LD50 in rat” (intravenous) is > 4000 µmol/kg and > 1020 mg/kg.
As for `CN(CC(=O)Nc1ccccc1)C(=O)CN1CCCC1=O` [Compound E, 2-(N-Methyl-2-oxo-1-pyrrolidineacetamido)-N-phenylacetamide], in series [1], the activation at 100 µg/mL worked out at 22%.
For the molecule `CC(C)NC(=O)CNC(=O)CN1CCCC1=O` [Compound F, N-isopropyl-2-(2-oxo-1-pyrrolidineacetamido)-acetamide], in the series with mice, the responders at 100 µM, 100 µmol/kg was found to be 40%. For the same molecule, in “toxicity, LD50 in rat” (intravenous), the LD50 is > 3000 µmol/kg and > 723 mg/kg.
As to `CCC(C(=O)NCC(N)=O)N1C(=O)CCC1(C)C` (stereo not drawn) [Compound G, 2-(alpha-ethyl-5,5-dimethyl-2-oxo-1-pyrrolidineacetamido)-acetamide], the minimal effective dose with rats (Rattus norvegicus, 24 h) is 0.51 mg/kg and 2 µmol/kg. Further, the “activity compared with piracetam in the active avoidance test” value (shortened to “activity compared with piracetam”) in the series on rats (rat, subcutaneous) was “superior to that of piracetam”. In addition, in the series on mice, the responders at 10 µM, 10 µmol/kg was 40% and the responders at 100 µM, 100 µmol/kg was 60%. In addition, in “toxicity, LD50 in rat” (intravenous), the median lethal dose (LD50) was > 2800 µmol/kg and > 714 mg/kg.
Take `CC(C(=O)NCC(N)=O)N1C(=O)CCC1(C)C` (stereo not drawn) [Compound H, 2-(alpha,5,5-trimethyl-2-oxo-1-pyrrolidineacetamido)-acetamide]: the minimal effective dose in the series with rats (Rattus norvegicus, 24 h) is 0.0024 mg/kg and 0.01 µmol/kg. In addition, the “activity compared with piracetam” value with rats (rat, subcutaneous) is “superior to that of piracetam”. Further, in the series on mice, the responders at 10 µM, 10 µmol/kg was found to be 60% and the responders at 100 µM, 100 µmol/kg turned out to be 100%. In addition, the activation at 10 µg/mL in series [1] amounted to 10%. Besides, the action against anoxia result in series [1] (same test (isolated papillary muscle, rabbit heart)) was “protective action against anoxia”. Besides, the 50% lethal dose (LD50) in the series “toxicity, LD50 in rat” (intravenous) is > 3100 µmol/kg and > 747 mg/kg.
For the molecule `CCCNC(=O)CNC(=O)C(CC)N1C(=O)CCC1(C)C` (stereo not drawn) [Compound I, 2-(alpha-ethyl-5,5-dimethyl-2-oxo-1-pyrrolidineacetamido)-N-propylacetamide], the minimal effective dose with rats (Rattus norvegicus, 24 h) is 5.94 mg/kg and 20 µmol/kg. Further, the “activity compared with piracetam” value with rats (rat, subcutaneous) was “superior to that of piracetam”. In the series with mice, the responders at 100 µM, 100 µmol/kg stood at 50% and the responders at 320 µM, 320 µmol/kg stood at 80%. The LD50 in the series “toxicity, LD50 in rat” (ip, intraperitoneal) is > 2500 µmol/kg and > 743 mg/kg.
As to `CC(C(=O)NCC(N)=O)N1CCCC1=O` (stereo not drawn) [Compound J, 2-(alpha-methyl-2-oxo-1-pyrrolidineacetamido)-acetamide], the minimal effective dose with rats (Rattus norvegicus, 24 h) is 0.21 mg/kg and 1 µmol/kg. Moreover, in the series with rats (rat, subcutaneous), the “activity compared with piracetam” value is given as “superior to that of piracetam”. For the same molecule, in the series on mice, the responders at 100 µM, 100 µmol/kg came out at 60% and the responders at 320 µM, 320 µmol/kg turned out to be 100%. For the same molecule, the LD50 in “toxicity, LD50 in rat” (intravenous) is > 2600 µmol/kg and > 554 mg/kg.
As for `CCC(C(=O)NCC(N)=O)N1CCCC1=O` (stereo not drawn) [Compound K, 2-(alpha-ethyl-2-oxo-1-pyrrolidineacetamido)-acetamide], the minimal effective dose in the series with rats (Rattus norvegicus, 24 h) is 4.54 mg/kg and 20 µmol/kg. Besides, the “activity compared with piracetam” value in the series on rats (rat, subcutaneous) is given as “superior to that of piracetam”. In the series with mice, the responders at 100 µM, 100 µmol/kg stood at 70%. Also, in series [1], the activation at 100 µg/mL came out at 44%. Also, the 50% lethal dose (LD50) in the series “toxicity, LD50 in rat” (intravenous) was > 2500 µmol/kg and > 568 mg/kg.
Turning to `NC(=O)CNC(=O)C1(N2CCCC2=O)CC1` [Compound L, 2-[1-(2-oxo-pyrrolidino)-cyclopropanecarboxamido]-acetamide], the minimal effective dose with rats (Rattus norvegicus, 24 h) was 0.23 mg/kg and 1 µmol/kg. Also, the “activity compared with piracetam” value in the series with rats (rat, subcutaneous) was “superior to that of piracetam”. Also, the responders at 100 µM, 100 µmol/kg with mice amounted to 80%.
For `CN(C)C(=O)CNC(=O)CN1CCCC1=O` [Compound M, N,N-ddimethyl-2-(2-oxo-1-pyrrolidineacetamido)-acetamide], the activation at 10 µg/mL in series [1] was 10%.
Turning to `CN(CC(N)=O)C(=O)CN1CCCC1=O` [Compound N, 2-(N-methyl-2-oxo-1-pyrrolidineacetamido)-acetamide], in the series on rats (Rattus norvegicus, 24 h), the minimal effective dose was 2.13 mg/kg and 10 µmol/kg. In addition, the “activity compared with piracetam” value with rats (rat, subcutaneous) was “superior to that of piracetam”.
Consider `CNC(=O)CN(C)C(=O)CN1CCCC1=O` [Compound O, N-methyl-2-(N-methyl-2-oxo-1-pyrrolidineacetamido)-acetamide], for which the minimal effective dose in the series on rats (Rattus norvegicus, 24 h) was 2.27 mg/kg and 10 µmol/kg. For the same molecule, the “activity compared with piracetam” value in the series with rats (rat, subcutaneous) is reported as “superior to that of piracetam”.
For `CN(C)C(=O)CN(C)C(=O)CN1CCCC1=O` [Compound P, N,N-dimethyl-2-(N-methyl-2-oxo-1-pyrrolidineacetamido)-acetamide], the minimal effective dose with rats (Rattus norvegicus, 24 h) was 2.41 mg/kg and 10 µmol/kg. In addition, in the series with rats (rat, subcutaneous), the “activity compared with piracetam” value is reported as “superior to that of piracetam”.
Take `CC(NC(=O)CN1CCCC1=O)C(N)=O` (centres unmarked) [Compound Q, 2-methyl-2-(2-oxo-1-pyrrolidineacetamido)-acetamide]: in the series with rats (Rattus norvegicus, 24 h), the minimal effective dose is 2.13 mg/kg and 10 µmol/kg. Besides, in the series on rats (rat, subcutaneous), the “activity compared with piracetam” value is reported as “superior to that of piracetam”.
For the molecule `NC(=O)C(NC(=O)CN1CCCC1=O)c1ccccc1` (centres unmarked) [Compound R, 2-(2-oxo-1-pyrrolidineacetamido)-2-phenylacetamide], in the series on rats (Rattus norvegicus, 24 h), the minimal effective dose was 2.75 mg/kg and 10 µmol/kg. Further, the “activity compared with piracetam” value in the series on rats (rat, subcutaneous) is on record as “superior to that of piracetam”.
Turning to `NC(=O)CNC(=O)CN1CCCCCC1=O` [Compound V, 2-(hexahydro-2-oxo-1H-azepine-1-acetamido)-acetamide], the “activity compared with piracetam” value with rats (rat, subcutaneous) was “superior to that of piracetam”. Further, the minimal effective dose in the series with rats (rat, subcutaneous, tested 24 hours later) is 2.27 mg/kg and 10 µmol/kg.
`CCCCC(C(=O)NCC(N)=O)N1CCCC1=O` (stereo not drawn) [Compound W, 2-(alpha-n-butyl-2-oxo-1-pyrrolidineacetamido)-acetamide]: the minimal effective dose in the series with rats (Rattus norvegicus, 24 h) was 2.55 mg/kg and 10 µmol/kg. Moreover, in the series on rats (rat, subcutaneous), the “activity compared with piracetam” value is reported as “superior to that of piracetam”.
For `CCCCC1CCN(CC(=O)NCC(N)=O)C1=O` (centres unmarked) [Compound X, 2-(3-n-butyl-2-oxo-1-pyrrolidineacetamido)-acetamide], the activation at 100 µg/mL in series [1] was 25%.
In the case of `Cn1c(=O)c2[nH]cnc2n(C)c1=O` [Theophylline, reference compound], the activation at 100 µg/mL in series [1] (100 μg/ml) was found to be 38%.

In general, LD50 refers to the dose expected to kill half of the subjects tested. Read a high LD50 as lower toxicity.
